From article PMC13308190, “Endothelial progenitor cell susceptibility to DNA damaging and DDR-modulating compounds determines endothelial differentiation accuracy” (Stem Cell Research & Therapy, 2026)

Legend:
Type in all cases: cell-based, mouse
[1] = test system: EC d6 (endothelial-like cells); experiment: RT-qPCR mRNA expression; conditions: for Cdkn1a mRNA / Cdkn2a mRNA / Glb1 mRNA / Il6 mRNA / Il8 mRNA / Tp53 mRNA: Fig 7C
Protocol: (§1) Total RNA was purified using the RNeasy Mini Kit (Qiagen, Hilden, Germany). Reverse transcriptase (RT) reaction was performed with the HighCapacity cDNA Reverse Transcription Kit (Applied Biosystems, Darmstadt, Germany) using 900–2000 ng of RNA. Quantitative RT-qPCR analysis was performed using following conditions: (1) 95 °C–10 min; (2) 45 amplification cycles with 95 °C–15 s, 55 °C–15 s, and 72 °C–17 s; (3) 95 °C–1 min, 55 °C–1 min, 65 °C–5 s. If not stated otherwise, analyses were performed in technical triplicates using pooled samples from two independent experiments (each performed with biological duplicates) by use of a CFX96 cycler (BioRad) and the SensiMix SYBR Kit (Bioline, London, UK). The primers used for mRNA expression analyses are listed in Supplementary Table 1. To ensure the specificity of the amplification product, melting curves were recorded at the end of the run. mRNA expression levels were normalized to β-Actin and Gapdh. Relative mRNA expression in mESC or corresponding untreated controls was set to 1.0. Only changes in gene expression of ≤ 0.5- and ≥ 2-fold were considered as biologically relevant.

mESC = experiment: RT-qPCR mRNA expression
Protocol: as §1, with “relevant. Fold-changes in gene expression are summarized in Supplementary Table 2.” for “relevant.”

[2] = test system: EC d6 (endothelial-like cells); experiment: Western blot protein expression (densitometry); conditions: EC d6 24 h; for CHK1 protein / RAD51 protein / gH2AX protein / p-CHK2 protein / p-KAP1 protein / p-RPA32 protein / p-p53 protein: Fig 5D
Protocol: (§2) Total protein cell extracts were obtained upon sonication in RIPA buffer (EpiShearTM Probe sonicator, Active Motif [La Hulpe, Belgium]). Protein concentrations were determined using the DC Protein Assay (BioRad [Munich, Germany]). Extracts were supplemented with Roti®-Load buffer (Carl Roth GmbH [Karlsruhe, Germany]) followed by heating (95 °C for 5 min). 20 µg of protein was separated by SDS-PAGE and transferred onto nitrocellulose membrane. After blocking (5% non-fat milk in TBS/0.1% Tween 20 or 5% BSA in TBS/0.1% Tween 20) (1 h, RT) membrane was incubated with primary antibodies (1:500–5000; overnight, 4 °C). After washing with TBS/0.1% Tween 20, peroxidase-conjugated secondary antibody (1:2000) was added (2 h, RT) and bands were visualized using ChemiDoxTM Touch imaging system (BioRad, Munich, Germany).

[3] = test system: EC d4 (endothelial progenitor cells); experiment: Western blot protein expression (densitometry); conditions: EC d4 48 h; for CHK1 protein / RAD51 protein / gH2AX protein / p-CHK2 protein / p-KAP1 protein / p-RPA32 protein / p-p53 protein: Fig 5D
Protocol: as §2

[4] = EC d6 + 10 µM 24 h + 24 h post incubation
[5] = EC d6 + 20 µM 24 h + 24 h post incubation
[6] = mESC + 10 µM 24 h + 24 h post incubation, Fig 7A
[7] = concentration 1 (Dox 1/B02 1/EST 1)
[8] = concentration 2 (Dox 2/B02 2/EST 2)

In the case of `Nc1ccccc1NC(=O)c1ccc(CNC(=O)OCc2cccnc2)cc1` [EST, entinostat], the “Cdkn1a mRNA” value [1, 4] is reported as 1.91 Fold of untreated control, the “Cdkn2a mRNA” value [1, 4] is reported as 1.85 Fold of untreated control and the “Glb1 mRNA” value [1, 4] is reported as 3.60 Fold of untreated control. The “Il6 mRNA” value [1, 4] was 1.19 Fold of untreated control, the “Il8 mRNA” value [1, 4] was 0.24 Fold of untreated control and the “Tp53 mRNA” value [1, 4] was 0.82 Fold of untreated control. The “Cdkn1a mRNA” value [1, 5] was 2.49 Fold of untreated control, the “Cdkn2a mRNA” value [1, 5] was 2.02 Fold of untreated control and the “Glb1 mRNA” value [1, 5] was 5.40 Fold of untreated control. For the same compound, the “Il6 mRNA” value [1, 5] was 2.47 Fold of untreated control, the “Il8 mRNA” value [1, 5] was 0.48 Fold of untreated control and the “Tp53 mRNA” value [1, 5] was 0.96 Fold of untreated control. For the same compound, the “Brca1 mRNA” value ([1]; EC d6 + 20 µM 24 h, Fig 5C) was 0.19 Fold of mESC, the “Chk1 mRNA” value ([1]; EC d6 + 20 µM 24 h, Fig 5C) was 0.44 Fold of mESC and the “Rad51 mRNA” value ([1]; EC d6 + 20 µM 24 h, Fig 5C) was 0.11 Fold of mESC. The “Pgc1a mRNA” value ([1]; EC d6 + 20 µM 24 h, Fig 6D) was 5.75 Fold of untreated control, the “Cldn5 mRNA” value ([1]; EC d6 + 20 µM 24 h, Fig 8C) was 2.16 Fold of EC d4 or d6 and the “Ocln mRNA” value ([1]; EC d6 + 20 µM 24 h, Fig 8C) was 1.62 Fold of EC d4 or d6. For the same compound, the “Tjp1 mRNA” value ([1]; EC d6 + 20 µM 24 h, Fig 8C) was 1.46 Fold of EC d4 or d6, the “Cdkn1a mRNA” value (mESC; [6]) was 2.08 Fold of untreated control and the “Cdkn2a mRNA” value (mESC; [6]) was 5.82 Fold of untreated control. For the same compound, the “Glb1 mRNA” value (mESC; [6]) was 0.47 Fold of untreated control, the “Il6 mRNA” value (mESC; [6]) was 6.25 Fold of untreated control and the “Il8 mRNA” value (mESC; [6]) was 0.83 Fold of untreated control. For the same compound, the “Tp53 mRNA” value (mESC; [6]) was 0.83 Fold of untreated control, the “Brca1 mRNA” value (mESC; mESC + 20 µM 24 h, Fig 5C) was 0.52 Fold of mESC and the “Chk1 mRNA” value (mESC; mESC + 20 µM 24 h, Fig 5C) was 0.27 Fold of mESC. The “Rad51 mRNA” value (mESC; mESC + 20 µM 24 h, Fig 5C) was 0.29 Fold of mESC, the “Pgc1a mRNA” value (mESC; mESC + 20 µM 24 h, Fig 6D) was 184.58 Fold of untreated control and the H3ac protein ([2]; Fig 1D) was 7.8 Fold of mESC. The H4ac protein ([2]; Fig 1D) was 4083.7 Fold of mESC, the “aTubac (acetylated α-Tubulin) protein” value ([2]; Fig 1D) was 1.0 Fold of mESC and the CHK1 protein [2, 7] was 0.6 Fold of mESC. The RAD51 protein [2, 7] was 0.6 Fold of mESC, the gH2AX protein [2, 7] was 1.3 Fold of mESC and the p-CHK2 protein [2, 7] was 0.5 Fold of mESC. For the same compound, the p-KAP1 protein [2, 7] was 0.0 Fold of mESC, the p-RPA32 protein [2, 7] was < 0.1 Fold of mESC and the p-p53 protein [2, 7] was 0.3 Fold of mESC. For the same compound, the CHK1 protein [2, 8] was 0.2 Fold of mESC, the RAD51 protein [2, 8] was 0.1 Fold of mESC and the gH2AX protein [2, 8] was 0.1 Fold of mESC. For the same compound, the p-CHK2 protein [2, 8] was 0.3 Fold of mESC, the p-KAP1 protein [2, 8] was 0.0 Fold of mESC and the p-RPA32 protein [2, 8] was < 0.1 Fold of mESC. The p-p53 protein [2, 8] was 0.3 Fold of mESC, the AMPKa protein ([2]; Fig 6E) was 0.7 Fold of mESC and the GSK3b protein ([2]; Fig 6E) was 1.7 Fold of mESC. For the same compound, the p-p70SK protein ([2]; Fig 6E) was 0.7 Fold of mESC, the H3ac protein ([3]; Fig 1D) was 4.6 Fold of mESC and the H4ac protein ([3]; Fig 1D) was 1853.2 Fold of mESC. The “aTubac (acetylated α-Tubulin) protein” value ([3]; Fig 1D) was 0.9 Fold of mESC, the CHK1 protein [3, 7] was 0.7 Fold of mESC and the RAD51 protein [3, 7] was 1.0 Fold of mESC. For the same compound, the gH2AX protein [3, 7] was 9.1 Fold of mESC, the p-CHK2 protein [3, 7] was 0.6 Fold of mESC and the p-KAP1 protein [3, 7] was 0.0 Fold of mESC. The p-RPA32 protein [3, 7] was 0.8 Fold of mESC, the p-p53 protein [3, 7] was 0.4 Fold of mESC and the CHK1 protein [3, 8] was 1.0 Fold of mESC. The RAD51 protein [3, 8] was 0.9 Fold of mESC, the gH2AX protein [3, 8] was 8.9 Fold of mESC and the p-CHK2 protein [3, 8] was 0.9 Fold of mESC. The p-KAP1 protein [3, 8] was 0.0 Fold of mESC, the p-RPA32 protein [3, 8] was 0.9 Fold of mESC and the p-p53 protein [3, 8] was 0.5 Fold of mESC. For the same compound, the AMPKa protein ([3]; Fig 6E) was 0.5 Fold of mESC, the GSK3b protein ([3]; Fig 6E) was 2.3 Fold of mESC and the p-p70SK protein ([3]; Fig 6E) was 1.6 Fold of mESC.
